The values below come from patent publication US20190046490A1, “METHODS OF TREATING LACTOSE INTOLERANCE” (Nogra Pharma Limited, priority 2016, published 2019).

Values joined by “and” are separate entries in the source; they are usually repeats but may differ in a detail not shown here. Identical values can stand only once. “Also recorded” adds a separate entry of the source.

Experiment [1] deals with LCT mRNA. The experiment in a line: Quantitative PCR of LCT mRNA expression in Caco-2 cells. In kind it is cell-based, human. On the procedure:
(§1) Caco-2 (colonic adenocarcinoma) cells were grown in Dulbecco's Modified Eagle's Medium (DMEM, Invitrogen, Life Technologies, Cergy-Pontoise, France) supplemented with 20% foetal calf serum (FCS, Dutscher, Brumath, France), 1% penicillin-streptomycin (5 ml/l) (Invitrogen, Life technologies) and 1% non-essential amino acids (5 ml/l) (Invitrogen, Life technologies). All cell lines were cultured as confluent monolayers at 37° C. in a controlled, 5% CO2 atmosphere.
(§2) For cell stimulations, 1×10^6 cells per well were seeded in 6-well plates. Cells were serum deprived for 16 hours prior to stimulation in order to synchronize the cells. Cells were treated with GED (Nogra Pharma Ltd, Ireland), pioglitazone (1 μM, Sigma-Aldrich) or CLA (various concentrations, Sigma-Aldrich). When necessary, the DMSO vehicle (Sigma-Aldrich) was used as control. After 24 hours of stimulation, cells were washed three times with sterile PBS before RNA extraction. Cell stimulations were performed in 4 replicates for microarray analysis and in 3, 4 or 6 replicates for other stimulations.
(§3) Cells were lysed with lysis buffer (RA1, Macherey-Nagel) containing 1% β-mercaptoethanol. Total RNA was extracted with a Nucleospin RNA kit (Macherey-Nagel, Hoerdt, France). After RNAse inactivation, total RNA was cleaned of genomic DNA traces by DNAse treatment and eluted in RNAse-free, DEPC-water. The purity of the RNA was evaluated by UV spectroscopy on a Nanodrop system (Nyxor Biotech, Paris, France) from 220 to 350 nm. Before microarray experiments, RNAs were also profiled on an Agilent 2100 bioanalyzer. One μg of total RNA with a minimum concentration of 50 ng/μl was used in the microarray and qRT-PCR analysis.
(§4) Expression of genes of interest was quantified by quantitative PCR (qPCR) of corresponding reverse transcribed mRNA. One μg of total RNA was reverse-transcribed into cDNA using the High Capacity cDNA Archive kit (Applied Biosystems). Amplification was performed using an ABI PRISM 7000 sequence detection system (Applied Biosystem) using Power SYBR® Green PCR master Mix (Applied Biosystem). Primer pairs for each human transcript were chosen with qPrimer depot software (at primerdepot.nci.nih.gov.). Quantification of qPCR signals was performed using ΔCt relative quantification method using GAPDH as a reference gene for human and rat samples and β-Actin for mouse samples. Values were represented in terms of relative quantity of mRNA level variation or fold increase compared to control conditions.

The subject of experiment [2] is LCT. The experiment in a line: LCT mRNA expression and activity in proximal small intestine of rats after oral GED. In kind it is in vivo. The settings on record: weaned Sprague-Dawley rats, 30 mg/kg daily by gavage for 7 days. Here is the method: as §4
(§5) Lactase activity was evaluated by using a glucose oxidase method (Glucose Assay Kit, Sigma). […] For Caco-2 cells, lactase activity was determined directly from the cell monolayer. […] The reaction was stopped with 100 μl of H2SO4 and read by spectrophotometry at 450 nm. When lactase activity was determined from intestinal sample, tissue samples were first dounce-homogenized in 0.9% NaCl on crushed ice. […] For each experiment, the background attributed to the remaining glucose in the samples was measured by incubating cells or cell extracts in lactose-free buffer. […]

Experiment [3] has as its system LCT. The experiment in a line: LCT mRNA expression and activity in proximal small intestine of mice after oral GED. The settings on record: weaned C57BL/6 mice, 30 mg/kg daily by gavage for 7 days. In kind it is in vivo. Here is the method:
as §4, §5

In experiment [4] the test system is LCT gene. The experiment in a line: Transcriptome microarray analysis of LCT mRNA expression in Caco-2 cells treated with PPARγ modulators. In kind it is cell-based, human. The conditions noted are these: vs unstimulated cells. Here is the method: as §1, §2, §3
Dual-colour gene expression microarrays were used to compare the cRNA from the samples. 44,000 genes were screened. The RNAs from the samples were first reverse-transcribed into cDNA (Affinity-Script RT, Agilent), which were then used as the substrate for the synthesis and amplification of cRNA by T7 RNA polymerase in the presence of cyanine 3-CTP for the CTL sample (green fluorescence) and cyanine 5-CTP for the PPAR-γ y modulator sample (red fluorescence). The two-labelled cRNAs were mixed, hybridized on the same array (G4851A Agilent 8×44K) and then scanned (with an Agilent G2505B scanner). Fluorescence was visualized after laser excitation and the relative intensities of the two fluorophores were expressed as a ratio, in order to yield the over- or under-expression status of each gene (using GeneSpring software (Agilent)). This analysis was performed for each PPAR-γ modulator.

Experiment [5] has as its system weaned rats fed with a lactose-enriched diet. The experiment in a line: Symptoms associated with lactose intolerance in weaned rats fed a lactose-enriched diet. The settings on record: rats on lactose-enriched diet. In kind it is in vivo. Here is the method: Animal experiments were performed in the accredited Pasteur Institute animal care facility (Institut Pasteur de Lille, France; n° B59-35009) according to governmental guidelines (n° 2010/63/UE; Décret 2013-118) and animal ethics committee approval. Specific pathogen-free male C57BL/6 mice and Sprague-Dawley rats were obtained from Janvier Labs (France). Mice and rats were housed 5 animals/cage and 3 animals/cage, respectively, in a specific pathogen-free facility, in an air-conditioned room with controlled temperature (22±1° C.), humidity (65-70%), and 12 h light/12 h dark cycles. Animals were fed with standard laboratory chow (except when indicated) and were provided with autoclaved tap water ad libitum. Animals were acclimatized for at least 1 week before entering the study.
In addition, the effect of GED on the symptoms associated with lactose intolerance was evaluated in weaned rats fed with a lactose-enriched diet provided by Ssniff Spezialdiäten GmbH (Soest, Germany). Animals were monitored daily, weighed, and stool consistencies were evaluated.
SCFA were extracted and measured as described in […], which is incorporated herein by reference.

On to `COC(Cc1ccc(N)cc1)C(=O)O` (stereo not shown) [GED, 3-(4′-aminophenyl)2-methoxypropionic acid], for which, in experiment [1] (0.1 mM, 1 mM, and 30 mM), the “LCT mRNA gene expression relative to unstimulated cells, dose-response” value was “increased”. For the same compound, the “LCT mRNA expression relative to control (qPCR)” value in experiment [1] (30 mM, 24 hours, normalized to GAPDH) was “Significant increases; also recorded: induction”. For the same compound, the “LCT activity in the proximal part of the small intestine” value in experiment [2] and in experiment [3] was “significantly increased” in each case. For the same compound, the “LCT expression in the proximal part of the small intestine” value in experiment [2] and in experiment [3] was “significantly increased” throughout. The “Fold Lactase RNA” value in experiment [4] (1 mM) is 5.28 fold and 5.29 fold; in experiment [4] (30 mM) it was 8.28 fold. Also, in experiment [5] (day 4), the “concentration of short-chain fatty acids (SCFA) in caecal contents” value was “significant decrease”. Also, the “caecum volume compared to untreated rats” value in experiment [5] (sacrificed at day 4, data not shown) is on record as “significant decrease”.
